From patent publication US12564582B2 (Prilenia Neurotherapeutics Ltd., priority 2016, dated 2026)
Read-outs that look alike come from different tables or passages of the source.

Experiments:
[1] = system: patients with Huntington's disease; conditions: for Δ to placebo, change from baseline in UHDRS TMS Gait and Balances: Week 52; for Δ to placebo, change from baseline in UHDRS TMS Gait and Balance: BL TFC≥7
Text: • CIBIC-Plus global score as compared to baseline • Change from baseline in the PDS score • Change from baseline in UHDRS FA • CGIC as compared to baseline • Change from baseline in UHDRS TFC • Change from baseline in UHDRS IS Global/Functional Scales: • Change from baseline in HD QOL • Change from baseline in Walk-12 scale TMS Subscores: • Change from baseline in hand movement score (defined as the sum of UHDRS domains finger taps, pronate-supinate hands and luria [fist-hand-palm test]) • Change from baseline in Gait and balance score (defined as the sum of UHDRS domains gait, tandem walking and retropulsion pull test) • Change from baseline in UHDRS mMS (defined as the sum of UHDRS domains dysarthria, tongue protrusion, finger taps, pronate-supinate hands, luria, rigidity, bradykinesia, gait, tandem walking, retropulsion pull test) • Change from baseline in UHDRS Chorea • Change from baseline in UHDRS Dystonia • Responders, defined as patients with UHDRS TMS change from baseline≤0 Other Motor Assessments: • Change from baseline in Q Motor measurements including digitomotography (speeded index finger tapping), dysdiadochomotography (pronation/supination hand tapping), manumotography and choreomotography (grip force and chorea analysis) and pedomotography (speeded foot tapping) • Change from baseline in the TUG test Cognitive/Psychiatric Assessments: • Change from baseline in HD-CAB brief: SDMT, Emotion Recognition, Trail Making Test, HVLT-R, Paced Tapping at 3 Hz, OTS. • Change from baseline in PBA-s Safety Variables and Endpoints
The gait and balance score is defined as the sum of UHDRS domains gait, tandem walking and retropulsion pull test.

[2] = system: patients with Huntington's disease; conditions: Week 26; for Δ to placebo, change from baseline in UHDRS TMS Chorea: ALL; for Wk 26 Δ to placebo, change from baseline in UHDRS TMS Chorea: Stage 1 BL TFC 11-13
Text: In the UHDRS, maximal chorea was scored from 0 (absent) to 4 (marked/prolonged) on each of the following items: face, mouth, trunk, right upper extremity, left upper extremity, right lower extremity, and left lower extremity. Maximal chorea is the sum of all scores.

[3] = system: patients with Huntington's disease
Experimental: These variables were analyzed in the same way as the primary efficacy endpoint except that the variable evaluation at baseline were included in the model instead of baseline UHDRS-TMS.

[4] = 45 mg bid, Week 26, Stage 1 BL TFC 11-13
[5] = 45 mg bid, Week 52, Stage 1 BL TFC 11-13
[6] = 45 mg bid, Week 52, all pridopidine treated patients
[7] = 67.5 mg bid, Week 26, Stage 1 BL TFC 11-13
[8] = 67.5 mg bid, Week 52, Stage 1 BL TFC 11-13
[9] = 67.5 mg bid, Week 52, all pridopidine treated patients
[10] = 90 mg bid, Week 26, Stage 1 BL TFC 11-13
[11] = 90 mg bid, Week 52, Stage 1 BL TFC 11-13

## CCCN1CCC(c2cccc(S(C)(=O)=O)c2)CC1 [pridopidine, 4-[3-(methylsulfonyl)phenyl]-1-propyl-piperidine]
[1]; 45 mg bid, Stage 1 BL TFC 11-13
  Δ to placebo, change from baseline in UHDRS TMS Gait and Balances: −0.94
[1]; 45 mg bid, all pridopidine treated patients
  Δ to placebo, change from baseline in UHDRS TMS Gait and Balances: −0.09
[1]; 45 mg bid, week 26
  Δ to placebo, change from baseline in UHDRS TMS Gait and Balance: −0.48
[1]; 45 mg bid, week 52
  Δ to placebo, change from baseline in UHDRS TMS Gait and Balance: −0.41
[1]; 67.5 mg bid, Stage 1 BL TFC 11-13
  Δ to placebo, change from baseline in UHDRS TMS Gait and Balances: −0.53
[1]; 67.5 mg bid, all pridopidine treated patients
  Δ to placebo, change from baseline in UHDRS TMS Gait and Balances: −0.05
[1]; 67.5 mg bid, week 26
  Δ to placebo, change from baseline in UHDRS TMS Gait and Balance: −0.37
[1]; 67.5 mg bid, week 52
  Δ to placebo, change from baseline in UHDRS TMS Gait and Balance: −0.43
[1]; 90 mg bid, Stage 1 BL TFC 11-13
  Δ to placebo, change from baseline in UHDRS TMS Gait and Balances: −0.49
[1]; 90 mg bid, all pridopidine treated patients
  Δ to placebo, change from baseline in UHDRS TMS Gait and Balances: −0.01
[1]; 90 mg bid, week 26
  Δ to placebo, change from baseline in UHDRS TMS Gait and Balance: −0.62
[1]; 90 mg bid, week 52
  Δ to placebo, change from baseline in UHDRS TMS Gait and Balance: −0.28
[1]; 112.5 mg bid, Stage 1 BL TFC 11-13
  Δ to placebo, change from baseline in UHDRS TMS Gait and Balances: −0.4
[1]; 112.5 mg bid, all pridopidine treated patients
  Δ to placebo, change from baseline in UHDRS TMS Gait and Balances: 0.04
[1]; 112.5 mg bid, week 26
  Δ to placebo, change from baseline in UHDRS TMS Gait and Balance: −0.49
[1]; 112.5 mg bid, week 52
  Δ to placebo, change from baseline in UHDRS TMS Gait and Balance: −0.09
[2]; 45 mg bid
  Δ to placebo, change from baseline in UHDRS TMS Chorea: 0.92
  Wk 26 Δ to placebo, change from baseline in UHDRS TMS Chorea: −1.4
[2]; 67.5 mg bid
  Δ to placebo, change from baseline in UHDRS TMS Chorea: 0.81
  Wk 26 Δ to placebo, change from baseline in UHDRS TMS Chorea: −2.07
[2]; 90 mg bid
  Δ to placebo, change from baseline in UHDRS TMS Chorea: 0.36
  Wk 26 Δ to placebo, change from baseline in UHDRS TMS Chorea: −2.52
[2]; 112.5 mg bid
  Δ to placebo, change from baseline in UHDRS TMS Chorea: 1.05
  Wk 26 Δ to placebo, change from baseline in UHDRS TMS Chorea: −1.08
[3]; 45 mg bid, Week 26, ALL
  Δ to placebo, change from baseline in UHDRS TMS Excluding Dystonia: 1.39
  Δ to placebo, change from baseline in UHDRS TMS Involuntary Movements: 0.89
[3]; [4]
  Δ to placebo, change from baseline in UHDRS TMS Excluding Dystonia: −3.6
  Δ to placebo, change from baseline in UHDRS TMS Involuntary Movements: −2.49
[3]; [5]
  Δ to placebo, change from baseline in UHDRS TMS Excluding Chorea: −4.09
  Δ to placebo, change from baseline in UHDRS TMS Involuntary Movements: −2.73
[3]; [6]
  Δ to placebo, change from baseline in UHDRS TMS Excluding Chorea: 0.05
  Δ to placebo, change from baseline in UHDRS TMS Involuntary Movements: 0.02
[3]; 67.5 mg bid, Week 26, ALL
  Δ to placebo, change from baseline in UHDRS TMS Excluding Dystonia: 1.97
  Δ to placebo, change from baseline in UHDRS TMS Involuntary Movements: 0.48
[3]; [7]
  Δ to placebo, change from baseline in UHDRS TMS Excluding Dystonia: −2.2
  Δ to placebo, change from baseline in UHDRS TMS Involuntary Movements: −3.07
[3]; [8]
  Δ to placebo, change from baseline in UHDRS TMS Excluding Chorea: −0.18
  Δ to placebo, change from baseline in UHDRS TMS Involuntary Movements: −0.2
[3]; [9]
  Δ to placebo, change from baseline in UHDRS TMS Excluding Chorea: 1.31
  Δ to placebo, change from baseline in UHDRS TMS Involuntary Movements: 0.8
[3]; 90 mg bid, Week 26, ALL
  Δ to placebo, change from baseline in UHDRS TMS Excluding Dystonia: 1.2
  Δ to placebo, change from baseline in UHDRS TMS Involuntary Movements: 0.01
[3]; [10]
  Δ to placebo, change from baseline in UHDRS TMS Excluding Dystonia: −4.35
  Δ to placebo, change from baseline in UHDRS TMS Involuntary Movements: −4
[3]; [11]
  Δ to placebo, change from baseline in UHDRS TMS Excluding Chorea: −4.92
  Δ to placebo, change from baseline in UHDRS TMS Involuntary Movements: −3.8
